Assays:
[1] = Human liver microsomal stability; type: in vitro ADME; conditions: Human Liver Microsomes 0.76 mg/mL, 1 μM compound, 37° C.
Method: (§1) Pooled human liver or intestinal microsomes (final concentration 0.76 mg/mL) were diluted in 100 mM potassium phosphate buffer (pH 7.4) and preincubated at 37° C. The compounds of interest were dissolved in DMSO (30 mM), diluted to 100 μM in acetonitrile or methanol, and added to the microsomal incubations to achieve a final concentration of 1 μM with 1% or less final organic solvent. The mixtures were incubated for 30 min at 37° C. Aliquots were removed at predetermined times and quenched with an excess acetonitrile, containing an internal standard, on ice. Following centrifugation, the analytes were quantified by liquid chromatography-tandem mass spectrometry (LC-MS/MS). The compound remaining (%) was calculated from the analyte area ratio at the predetermined time/initial analyte area ratio at time 0×100.

[2] = Human intestinal microsomal stability; type: in vitro ADME; conditions: Human Intestinal Microsomes 0.76 mg/mL, 1 μM compound, 37° C.
Method: as §1

[3] = tested on: Apolipoprotein B Secretion from HepG2 Cells; assay: Inhibition of Apolipoprotein B secretion from HepG2 cells (ELISA); type: cell-based, human; conditions: Homo sapiens, HepG2, HepG2 cells, 22-24 hours incubation, ApoB ELISA; Low/High IC50 columns give the 95% confidence interval

For `CCOC(=O)[C@]1(COC(=O)Cc2ccc(NC(=O)c3ccc(C)cc3-c3ccc(OC(C)C)cc3)c(C(=O)N(C)C)c2)c2ccccc2C(=O)N1C` [Example 72, ethyl (1R)-1-({2-[3-(dimethylcarbamoyl)-4-{[(4′-isopropoxy-5-methylbiphenyl-2-yl)carbonyl]amino}phenyl]acetoxy}methyl)-2-methyl-3-oxoisoindoline-1-carboxylate], the “Compound remaining (%) at 4 min” value ([1]; pH 7.4, 4 min) was 71%, the “Compound remaining (%) at 30 min” value ([1]; pH 7.4, 30 min) was 9.2% and the “Compound remaining (%) at 4 min” value ([2]; pH 7.4, 4 min) was 125%. For the same molecule, the “Compound remaining (%) at 30 min” value ([2]; pH 7.4, 30 min) was 100% and the IC50 [3] was 119 pM.

Reference: patent publication US20130072519A1, “2-PHENYL BENZOYLAMIDES” (priority 2010, published 2013)
